Source: ChEMBL document CHEMBL4052763, “Discovery of dual Axl/VEGF-R2 inhibitors as potential anti-angiogenic and anti-metastatic drugs for cancer chemotherapy” (Bioorg Med Chem Lett, 2017)

Tests used:
[1] = biological target: T1, Tyrosine-protein kinase receptor UFO (Homo sapiens, UniProt P30530); test: Inhibition of Axl in human HeLa cells assessed as reduction in AKT phosphorylation at Ser 473 residues pre-incubated for 1 hr before preclustered anti-Axl antibody stimulation by Western blot analysis; format: cell-based
T1 sequence (P30530 whole entry): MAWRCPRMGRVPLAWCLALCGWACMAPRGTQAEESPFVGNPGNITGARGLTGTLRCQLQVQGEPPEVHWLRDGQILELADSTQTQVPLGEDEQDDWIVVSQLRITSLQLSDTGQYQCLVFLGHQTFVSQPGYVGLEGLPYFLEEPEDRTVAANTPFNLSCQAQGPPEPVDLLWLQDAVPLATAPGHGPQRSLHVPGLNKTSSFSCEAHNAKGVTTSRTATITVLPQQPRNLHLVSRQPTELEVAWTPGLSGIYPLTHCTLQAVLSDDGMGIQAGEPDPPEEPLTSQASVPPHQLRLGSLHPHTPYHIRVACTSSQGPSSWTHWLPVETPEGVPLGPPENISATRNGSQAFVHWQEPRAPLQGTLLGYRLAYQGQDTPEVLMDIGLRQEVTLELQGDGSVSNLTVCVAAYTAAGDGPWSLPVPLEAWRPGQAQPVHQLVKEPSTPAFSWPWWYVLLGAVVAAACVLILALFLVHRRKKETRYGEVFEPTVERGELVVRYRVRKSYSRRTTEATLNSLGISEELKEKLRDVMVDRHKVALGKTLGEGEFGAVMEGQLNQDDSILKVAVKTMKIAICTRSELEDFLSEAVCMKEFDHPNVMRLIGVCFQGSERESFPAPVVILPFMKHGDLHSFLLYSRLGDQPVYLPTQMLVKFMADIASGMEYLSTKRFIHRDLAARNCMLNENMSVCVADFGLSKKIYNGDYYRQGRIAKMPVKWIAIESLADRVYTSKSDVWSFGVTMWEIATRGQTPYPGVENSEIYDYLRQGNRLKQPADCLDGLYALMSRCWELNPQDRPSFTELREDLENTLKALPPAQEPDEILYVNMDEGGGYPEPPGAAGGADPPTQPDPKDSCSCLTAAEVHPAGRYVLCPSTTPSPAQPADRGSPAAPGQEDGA

[2] = system: MDA-MB-231; test: Antitumor activity against human MDA-MB-231 cells xenografted in nu/nu mouse assessed as tumor growth delay at 125 mg/kg, po bid after 21 days relative to control; format: functional
[3] = system: CAKI-1; test: Antitumor activity against human Caki1 cells xenografted model assessed as tumor growth inhibition at 85 mg/kg, po bid relative to control; format: functional; conditions: CAKI-1, po, read-out: TGI
[4] = system: MDA-MB-231; test: Antitumor activity against human MDA-MB-231 cells xenografted in nu/nu mouse assessed as tumor growth inhibition at 85 mg/kg, po bid after 21 days relative to control; format: functional; conditions: MDA-MB-231, po, 504 h, read-out: TGI
[5] = system: MDA-MB-231; test: Antitumor activity against human MDA-MB-231 cells xenografted in nu/nu mouse assessed as tumor growth inhibition at 125 mg/kg, po bid after 21 days relative to control; format: functional; conditions: MDA-MB-231, po, 504 h, read-out: TGI
[6] = system: Mus musculus; test: Inhibition of fibroblast growth factor-induced neovascularization in mouse corneal micropocket at 100 mg/kg, bid relative to control; format: functional
[7] = system: Mus musculus; test: Inhibition of fibroblast growth factor-induced neovascularization in mouse corneal micropocket at 50 mg/kg, bid relative to control; format: functional
[8] = system: Mus musculus; test: Toxicity in nu/nu mouse xenografted with human MDA-MB-231 cells at 125 mg/kg, po bid after 21 days; format: organism-based; conditions: in vivo, 504 h
[9] = system: Mus musculus; test: Toxicity in nu/nu mouse xenografted with human MDA-MB-231 cells at 85 mg/kg, po bid after 21 days; format: organism-based; conditions: in vivo, 504 h
[10] = biological target: Vascular endothelial growth factor receptor 2 (Homo sapiens, UniProt P35968); test: Inhibition of VEGF stimulated VEGFR2 phosphorylation at […] residues in HUVEC preincubated for 1 hr followed by VEGF addition measured after 5 mins by Western blot analysis
[11] = Clearance in iv dosed Sprague-Dawley rat; format: ADME, organism-based; conditions: in vivo
[12] = Volume of distribution at steady state in iv dosed Sprague-Dawley rat; format: ADME, organism-based; conditions: in vivo, read-out: Vdss
[13] = Half life in iv dosed Sprague-Dawley rat; format: ADME, organism-based; conditions: in vivo
[14] = biological target: Insulin receptor (Homo sapiens, UniProt P06213); test: Inhibition of insulin stimulated INSR phosphorylation in human HeLa cells preincubated for 1 hr followed by insulin addition measured after 5 mins by Western blot analysis; format: cell-based
[15] = Aqueous solubility of the compound; format: physicochemical; conditions: buffer
[16] = Oral bioavailability in Sprague-Dawley rat; format: ADME, organism-based; conditions: in vivo
[17] = biological target: T1, Tyrosine-protein kinase receptor UFO; test: Inhibition of N-terminal GST-tagged human Axl (464 to 885 end residues) cytoplasmic domain expressed in baculovirus expression system using HS1 peptide as substrate after 40 mins in presence of ATP by fluorescence polarization assay
[18] = system: MDA-MB-231; test: Antitumor activity against human MDA-MB-231 cells xenografted in nu/nu mouse assessed as tumor growth inhibition at 80 mg/kg, qd after 21 days relative to control; format: functional; conditions: MDA-MB-231, 504 h, read-out: TGI
[19] = system: CAKI-1; test: Antitumor activity against human Caki1 cells xenografted model assessed as tumor growth inhibition at 80 mg/kg, po qd relative to control; format: functional; conditions: CAKI-1, po, read-out: TGI
[20] = system: Mus musculus; test: Inhibition of fibroblast growth factor-induced neovascularization in mouse corneal micropocket at 80 mg/kg, qd relative to control; format: functional

Insulin receptor, sequence (P06213 28-758 limits assumed): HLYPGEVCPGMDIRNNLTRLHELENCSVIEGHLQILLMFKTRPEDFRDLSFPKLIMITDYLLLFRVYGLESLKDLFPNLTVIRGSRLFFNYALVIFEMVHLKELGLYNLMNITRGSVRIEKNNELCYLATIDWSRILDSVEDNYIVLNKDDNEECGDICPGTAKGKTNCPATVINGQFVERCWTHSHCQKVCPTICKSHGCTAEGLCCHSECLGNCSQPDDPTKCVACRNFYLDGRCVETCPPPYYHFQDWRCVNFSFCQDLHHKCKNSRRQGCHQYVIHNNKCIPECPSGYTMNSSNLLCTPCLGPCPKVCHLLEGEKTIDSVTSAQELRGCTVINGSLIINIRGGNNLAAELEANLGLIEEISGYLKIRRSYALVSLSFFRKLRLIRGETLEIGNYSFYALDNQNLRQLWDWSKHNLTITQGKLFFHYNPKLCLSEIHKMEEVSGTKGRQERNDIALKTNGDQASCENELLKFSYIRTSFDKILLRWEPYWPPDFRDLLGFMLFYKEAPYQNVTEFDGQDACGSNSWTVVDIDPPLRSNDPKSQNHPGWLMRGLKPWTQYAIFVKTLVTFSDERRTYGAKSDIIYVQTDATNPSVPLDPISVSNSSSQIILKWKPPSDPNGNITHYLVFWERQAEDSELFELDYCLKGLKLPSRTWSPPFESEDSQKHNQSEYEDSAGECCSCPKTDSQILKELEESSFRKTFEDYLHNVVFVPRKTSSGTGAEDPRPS
Insulin receptor, sequence (P06213 763-1382 limits assumed): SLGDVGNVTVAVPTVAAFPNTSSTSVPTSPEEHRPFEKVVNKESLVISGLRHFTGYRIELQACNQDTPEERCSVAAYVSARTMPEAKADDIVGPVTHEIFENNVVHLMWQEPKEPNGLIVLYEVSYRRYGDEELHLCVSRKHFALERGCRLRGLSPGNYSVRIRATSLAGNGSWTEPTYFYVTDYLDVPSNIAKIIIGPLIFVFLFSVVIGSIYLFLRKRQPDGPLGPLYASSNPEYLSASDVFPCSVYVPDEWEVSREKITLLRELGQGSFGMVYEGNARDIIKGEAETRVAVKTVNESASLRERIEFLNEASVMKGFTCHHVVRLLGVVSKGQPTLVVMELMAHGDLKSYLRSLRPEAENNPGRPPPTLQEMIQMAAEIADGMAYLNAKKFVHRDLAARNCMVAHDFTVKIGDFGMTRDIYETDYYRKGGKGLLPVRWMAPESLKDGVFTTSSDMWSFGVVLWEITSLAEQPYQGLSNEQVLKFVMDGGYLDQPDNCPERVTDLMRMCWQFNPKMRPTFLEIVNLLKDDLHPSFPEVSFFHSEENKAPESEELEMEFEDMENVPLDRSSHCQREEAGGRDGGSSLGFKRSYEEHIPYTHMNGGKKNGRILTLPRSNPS
Vascular endothelial growth factor receptor 2, sequence (P35968 whole entry): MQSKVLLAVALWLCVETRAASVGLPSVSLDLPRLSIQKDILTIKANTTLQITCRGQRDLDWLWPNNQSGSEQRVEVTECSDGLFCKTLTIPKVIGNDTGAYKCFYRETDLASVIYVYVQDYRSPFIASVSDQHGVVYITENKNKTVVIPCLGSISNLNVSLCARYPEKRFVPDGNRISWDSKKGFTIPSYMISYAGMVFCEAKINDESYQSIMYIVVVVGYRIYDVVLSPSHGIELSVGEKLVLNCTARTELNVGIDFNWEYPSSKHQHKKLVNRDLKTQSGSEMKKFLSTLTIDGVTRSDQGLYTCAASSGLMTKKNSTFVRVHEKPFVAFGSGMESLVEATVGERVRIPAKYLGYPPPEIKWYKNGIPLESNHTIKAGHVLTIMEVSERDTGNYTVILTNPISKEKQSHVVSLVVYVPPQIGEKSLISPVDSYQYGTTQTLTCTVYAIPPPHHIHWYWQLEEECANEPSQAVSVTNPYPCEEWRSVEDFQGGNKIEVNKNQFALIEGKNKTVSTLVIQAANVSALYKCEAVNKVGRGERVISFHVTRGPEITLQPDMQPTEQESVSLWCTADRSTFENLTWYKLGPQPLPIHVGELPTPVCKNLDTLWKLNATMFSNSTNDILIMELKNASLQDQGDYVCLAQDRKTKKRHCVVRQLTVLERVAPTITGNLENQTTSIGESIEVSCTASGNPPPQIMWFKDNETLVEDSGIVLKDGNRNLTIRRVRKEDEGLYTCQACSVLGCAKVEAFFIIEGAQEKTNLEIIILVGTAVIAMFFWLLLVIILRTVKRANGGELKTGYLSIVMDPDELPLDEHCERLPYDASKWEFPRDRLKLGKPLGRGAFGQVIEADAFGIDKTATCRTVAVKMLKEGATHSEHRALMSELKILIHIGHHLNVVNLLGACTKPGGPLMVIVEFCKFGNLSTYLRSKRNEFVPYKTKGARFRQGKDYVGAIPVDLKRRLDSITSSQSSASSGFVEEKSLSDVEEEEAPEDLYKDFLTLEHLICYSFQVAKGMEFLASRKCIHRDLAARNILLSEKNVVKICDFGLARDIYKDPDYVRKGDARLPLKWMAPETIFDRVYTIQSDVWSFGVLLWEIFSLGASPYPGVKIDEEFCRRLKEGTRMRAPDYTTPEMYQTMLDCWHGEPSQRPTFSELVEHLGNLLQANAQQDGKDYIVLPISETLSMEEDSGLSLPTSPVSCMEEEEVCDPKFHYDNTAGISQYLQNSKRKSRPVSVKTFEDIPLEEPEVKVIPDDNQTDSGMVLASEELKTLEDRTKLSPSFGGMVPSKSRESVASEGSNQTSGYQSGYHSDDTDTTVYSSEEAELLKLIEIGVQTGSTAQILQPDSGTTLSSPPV

Row | EC50 [1] [nM] | EC50 [10] [nM] | EC50 [14] [nM] | SMILES | also measured
1 | 20 |  |  | Nc1nc(Nc2ccc(N3CCN(C4CC5CCC4C5)CC3)c(F)c2)nn1-c1ncnc2ccsc12 (racemic) | 
2 | 136 |  |  | Cc1csc2c(-n3nc(Nc4ccc(N5CCN([C@H]6C[C@@H]7CC[C@H]6C7)CC5)c(Cl)c4)nc3N)nc(Cl)nc12 | Activity [2]: 79%; inhibition in vivo at 85 mg/kg [3]: 80%; inhibition in vivo at 85 mg/kg [4]: 69%; inhibition in vivo at 125 mg/kg [5]: 83%; inhibition in vivo at 100 mg/kg [6]: 73%; inhibition in vivo at 50 mg/kg [7]: 50%; Activity [8]: Toxic; Activity [9]: Non-Toxic
3 | 62 | 90 |  | Cc1csc2c(-n3nc(Nc4ccc(N5CCN(C6CC7CCC6C7)CC5)c(F)c4)nc3N)ncnc12 (racemic) | 
4 |  | 65 |  | Cc1csc2c(-n3nc(Nc4ccc(N5CCN(C6CC7CCC6C7)CC5)cc4)nc3N)nc(Cl)nc12 (racemic) | clearance [11]: 11.5 mL/min/kg; Vd [12]: 4.4 L/kg; half-life [13]: 4.9 h
5 |  |  |  | Nc1nc(Nc2ccc(N3CCN(C4CC5CCC4C5)CC3)cc2)nn1-c1nccc2ccccc12 (racemic) | clearance [11]: 52 mL/min/kg; Vd [12]: 8.8 L/kg; half-life [13]: 2.3 h
6 |  | 146 |  | Nc1nc(Nc2ccc(N3CCN(C4CC5CCC4C5)CC3)cc2)nn1-c1ncnc2ccc(F)cc12 (racemic) | clearance [11]: 44 mL/min/kg; Vd [12]: 7.9 L/kg; half-life [13]: 2.3 h
7 |  |  | 14 | Nc1nc(Nc2ccc(OCCN3CCCC3)cc2)nn1-c1ncnc2ccc(Cl)cc12 | 
8 | 55 | 26 | 5030 | COc1cc2ncnc(-n3nc(Nc4ccc(N5CCN(C6CCCCC6)CC5)c(F)c4)nc3N)c2cc1OC | 
9 | 84 | 80 |  | CC(C)(C)c1cc2ncnc(-n3nc(Nc4ccc(N5CCN(C6CC7CCC6C7)CC5)c(Cl)c4)nc3N)c2s1 (racemic) | 
10 |  | 196 |  | Nc1nc(Nc2ccc(N3CCN(C4CC5CCC4C5)CC3)cc2)nn1-c1ncnc2ccc(Cl)cc12 (racemic) | 
11 | 39 | 3 | 4580 | COc1cc2ncnc(-n3nc(Nc4ccc(N5CCN(C)CC5)cc4)nc3N)c2cc1OC | 
12 |  | 104 |  | Cc1nc(-n2nc(Nc3ccc(N4CCN(C5CC6CCC5C6)CC4)cc3)nc2N)c2ccccc2n1 (racemic) | 
13 | 16 | 14 | 1320 | COc1cc2ncnc(-n3nc(Nc4ccc(C5CCN(C)CC5)cc4)nc3N)c2cc1OC | 
14 |  |  | 582 | Cc1csc2c(-n3nc(Nc4ccc(OCCN5CCCC5)cc4)nc3N)nc(Cl)nc12 | 
15 |  |  | 300 | Nc1nc(Nc2ccc(OCCN3CCCC3)cc2)nn1-c1ncnc2c1sc1ccccc12 | 
16 | 193 | 19 | 4760 | COc1cc2ncnc(-n3nc(Nc4ccc(N5CC[C@H](N(C)C)C5)cc4)nc3N)c2cc1OC | 
17 | 21 | 24 |  | Nc1nc(Nc2ccc(N3CCN(C4CC5CCC4C5)CC3)cc2)nn1-c1ncnc2ccsc12 (racemic) | 
18 | 47 |  | 2750 | Nc1nc(Nc2ccc(OCCN3CCCC3)c(F)c2)nn1C(=O)c1ccc(N2CCOCC2)cc1 | solubility [15]: Insoluble; bioavailability [16]: < 1%
19 | 27 |  | 241 | Nc1nc(Nc2ccc(OCCN3CCCC3)cc2)nn1-c1nc(Cl)nc2ccccc12 | IC50 [17]: 7 nM
20 |  |  | 126 | Nc1nc(Nc2ccc(OCCN3CCCC3)cc2)nn1-c1ncnc2ccc(F)cc12 | 
21 |  |  | 320 | Cc1nc(-n2nc(Nc3ccc(OCCN4CCCC4)cc3)nc2N)c2ccccc2n1 | 
22 | 52 | 4 | 1800 | COc1cc2ncnc(-n3nc(Nc4ccc(OC5CCCN(C)C5)cc4)nc3N)c2cc1OC (configuration not stated) | 
23 | 85 | 160 |  | Nc1nc(Nc2ccc(N3CCN(C4CC5CCC4C5)CC3)c(Cl)c2)nn1-c1ncnc2sccc12 (racemic) | 
24 | 334 |  |  | Nc1nc(Nc2ccc(OCCN3CCCC3)c(F)c2)nn1-c1ccccn1 | 
25 |  | 47 | > 10000 | COc1cc2ncnc(-n3nc(Nc4ccc(N5CCN(C6CC7CCC6C7)CC5)c(Cl)c4)nc3N)c2cc1OC (configuration not stated) | clearance [11]: 117 mL/min/kg; Vd [12]: 27 L/kg; half-life [13]: 2.7 h
26 |  |  | 4170 | COc1cc2ncnc(-n3nc(Nc4ccc(OCCN5CCCC5)c(Cl)c4)nc3N)c2cc1OC | 
27 |  |  | 1010 | Nc1nc(Nc2ccc(OCCN3CCCC3)cc2)nn1-c1ncnc2c1CCC2 | 
28 |  |  |  | CCN(CC)CCNC(=O)c1c(C)[nH]c(/C=C2\C(=O)Nc3ccc(F)cc32)c1C [SUNITINIB] | inhibition in vivo at 80 mg/kg [18]: 84%; inhibition in vivo at 80 mg/kg [19]: 85%; inhibition in vivo at 80 mg/kg [20]: 78%
29 | 52 | 24 |  | Nc1nc(Nc2ccc(N3CCN(C4CC5CCC4C5)CC3)cc2)nn1-c1ncnc2c1sc1ncccc12 (racemic) | 
30 | 216 |  |  | Cc1csc2c(-n3nc(Nc4ccc(N5CCN([C@@H]6C[C@H]7CC[C@@H]6C7)CC5)c(Cl)c4)nc3N)nc(Cl)nc12 | 
